How the values were obtained:
Format in all cases: cell-based, human
[1] = tested on: Nrf2 target genes (GCLC, GCLM, NAD(P)H dehydrogenase, quinone 1); assay: Nrf2 target gene expression in HPKs (qRT-PCR); conditions: 10 μM, RNA after 8 h, FIG. 6G
Description: Human primary keratinocytes (HPKs) constitutively express pro-IL-1β and inflammasome proteins.
qRT-PCR was performed with the LightCycler 480 SYBR Green Master or the FastStart Universal SYBR Green Master (both Roche, Rotkreuz, Switzerland) using total cellular RNA. Specific primer pairs (Supplementary Table 2) were designed to generate an approximately 150 bp fragment flanking an intron-exon border of the corresponding gene. The LightCycler 480 96-well version (ROCHE, Rotkreuz, Switzerland) or the ViiA 7 Real-Time FOR System (Life Technologies, Carlsbad, US-CA) was used for reaction and detection according the instructions of the manufacturer.
FIG. 6: Bone marrow (BM) cells were isolated from Nrf2-deficient mice and wt litterfnates and differentiated into dendritic cells (DCs). (A, B) After priming with upLPS overnight, BMDCs were treated with the NLRP3 inflammasome activators nigericin (20 μM), zymosan (20 μg/ml), MSU (150 μg/ml), ATP (5 mM) or transfected with poly(dA:dT) (1 μg/ml) for activation of the AIM2 inflammasome. After 6 h, supernatants were analysed for secretion of IL-1β by (A) ELISA or (B) Western blot. Mock-treated but primed BMDCs were analysed for expression of inflammasome proteins and pro-IL-1β at the (C) mRNA level by qRT-PCR or at the (D) protein level by Western blot. (B, D) Duplicates from two individual mice per genotype are shown (biological replicates). (E-G) HPKs were treated with the Nrf2 activators SFN (10 μM), tBHQ (10 μM), DMF (50 μM) and 15d-PGJ2 (10 μM). After 1 h, the cells were harvested and analysed for expression of the indicated proteins using total cell lysates (E) or cytoplasmic and nuclear lysates (F). Western blots for the nuclear protein lamin NC and the cytoplasmic protein α-tubulin served as controls. Specific bands are marked with an asterisk. (G) Total RNA was isolated after 8 h and qRT-PCR was performed for quantification of expression of the Nrf2 target genes glutamate-cysteine ligase, catalytic subunit (GCLC), glutamate-cysteine ligase, modifier subunit (GCLM), and NAD(P)H dehydrogenase, quinone 1 (N001). (A-G) Representative experiments performed at least three times are shown. […] Mann-Whitney test was performed. […] Mann-Whitney test was performed. *P≤0.05

NLRP3 inflammasome = assay: UVB irradiation-induced inflammasome activation in HPKs (IL-1β ELISA, Western blot); conditions: for relative efficiency/potency of inflammasome inhibition between compounds: UVB, same concentrations; for relative efficiency/potency of inflammasome inhibition between compounds / inflammasome activation (processed caspase-1, mature IL-1β and -18 in the supernatant): FIG. 2A, 8A-C; for inflammasome activation (processed caspase-1, mature IL-1β and -18 in the supernatant): different doses, UVB 30 min later, harvested after 5 h
Text: To determine the effects of Nrf2 activating compounds on inflammasome activation, the inventors treated keratinocytes with different doses of SFN, tBHQ, DMF or 15d-PGJ2 and irradiated the cells with UVB.
SFN, DMF, 15d-PGJ2, tBHQ, zymosan, ATP, poly(dA:dT), cycloheximide, puromycin, and doxycycline were purchased from Sigma (Munich, Germany), nigericin from Enzo Life Sciences (New York, US-NY), MG132 from Calbiochem (Darmstadt, Germany), and blasticidin from Invivogen (Toulouse, France). Release of IL-1p was determined by ELISA according the instructions of the manufacturer (R&D Systems, Minneapolis, US-MN). MSU crystals were prepared by crystallisation of a supersaturated solution of uric acid under mildly basic conditions. Briefly, uric acid was added to a solution of NaOH, the solution was boiled until the uric acid was dissolved and passed through a filter. NaCl was added and crystallisation was performed at 4° C. Crystals were filtered, then dried using a speedvac, weighted and autoclaved.
(A) HPKs were treated with the indicated concentrations of the Nrf2 activating compound tBHQ irradiated with UVB 30 min later and harvested after 5 h. ELISA measurements were performed for quantification of IL-1β secretion and Western blots for analysis of expression and activation of the indicated proteins. Specific bands are marked with an asterisk. (B) THP-1 cells were differentiated with PMA (27 nM) for 3 d, primed with upLPS (100 ng/ml) overnight, and 1 h before inflammasome activation (5 μM nigericin, 150 μg/ml MSU) treated with SFN (10 μM), 15-PGJ2 (10 μM) or DMF (50 μM) (15-PG: 15-PGJ2). Cells and supernatants were harvested after 5 h and analysed for inflammasome activation by ELISA measurement of IL-1p and Western blots as indicated. (C) Freshly isolated PBMCs from human blood were primed overnight with upLPS (100 ng/ml) and treated with SFN (10 μM), tBHQ (10 μM), DMF (50 μM) or 15-PGJ2 (10 μM) 1 h before inflammasome activation by nigericin (5 μM). ELISA measurement for secretion of IL-1β as readout for inflammasome activation was performed after 5 h. (D) HPKs or (E) differentiated and primed THP-1 cells were pretreated with cycloheximide (CHX, 30 μg/ml) to block protein synthesis for 1 h before SFN (10 μM) was added to the cells and after an additional hour the inflammasome was activated by (D) irradiation with UVB or (E) treatment with nigericin (5 μM). Cells and supernatants were harvested after (D) 6 h or (E) 3.5 h and analysed for inflammasome activation by Western blot as indicated. (A-E) Representative experiments performed at least three times are shown. Statistics: (A-C) Error bars represent the mean±SD of a representative experiment performed in triplicates. One-way ANOVA was performed. **P≤0.01; ***P≤0.001.
(§1) FIG. 8: (A-C) HPKs were treated with the Nrf2 activating compounds (A) SFN, (B) DMF, and (C) 15d-PGJ2, irradiated with UVB 30 min later and harvested after 5 h. Analogous experiment as described in FIG. 2A for tBHQ. (D) THP-1 cells were differentiated with TPA for 3 d and primed with LPS overnight. Then, cells were treated with the solvent DMSO, SFN (10 μM) or 15-PGJ2 (10 μM). After 30 min the inflammasome was activated by nigericin treatment and cells and supernatants were harvested after 2.5 h. Western blots showing prolL-1β and mature IL-1p in the lysate and supernatant. 20% lysate and supernatant of a 12 well was used, respectively, in order to allow a comparison. IL-1β was quantified in the supernatant by ELISA and cytotoxicity by LDH release.

THP-1 cells = assay: Pyroptosis in inflammasome activated THP-1 cells (LDH release); conditions: THP-1, 10 μM 30 min before nigericin, 2.5 h, FIG. 8D
Description: To determine the effects of Nrf2 activating compounds on inflammasome activation, the inventors treated keratinocytes with different doses of SFN, tBHQ, DMF or 15d-PGJ2 and irradiated the cells with UVB. […] As the Nrf2 activators were added to the cells only 15 to 30 min prior to inflammasome activation, it is unlikely that Nrf2 target genes are involved in inflammasome inhibition.
Supernatants were harvested and after centrifugation (400×g) used for analysis. Cells were lysed in culture medium with 2% Triton X-100 for 10 min, LDH activity was determined according to the manufacturer (Cytotox 96 nonradioactive cytotoxicity assay, Promega, Madison, US-WC).
as §1, with “20% lysate and supernatant of a 12 well was used, respectively, in order to allow a comparison.” left out

| SMILES | expression of classical Nrf2 target genes [1] | relative efficiency/potency of inflammasome inhibition between compounds (NLRP3 inflammasome) | inflammasome activation (processed caspase-1, mature IL-1β and -18 in the supernatant) (NLRP3 inflammasome) | pyroptosis (release of lactate dehydrogenase) (THP-1 cells) | inflammasome inhibition by SFN with protein synthesis blocked by cycloheximide (NLRP3 inflammasome; CHX 30 μg/ml 1 h before SFN 10 μM, UVB 1 h later, 6 h, FIG. 2D) |
| --- | --- | --- | --- | --- | --- |
| CCCCCC=CC=C1C(=O)C=CC1CC=CCCCC(=O)O [15d-PGJ2, 15-deoxy-D-prostaglandin J2] | induction of classical Nrf2 target genes | much more efficient than tBHQ and DMF | inhibited inflammasome activation in a dose-dependent manner | strongly inhibited pyroptosis |  |
| C[S+]([O-])CCCCN=C=S (stereo not drawn) [SFN, sulforaphane] | induction of classical Nrf2 target genes | much more efficient than tBHQ and DMF | inhibited inflammasome activation in a dose-dependent manner | strongly inhibited pyroptosis | did not prevent inflammasome inhibition |
